# According to patent US20220135622A1, “ANTIBACTERIAL PEPTIDES AND METHODS OF USE” (priority 2019, published 2022):
# “Also recorded” adds a separate entry of the source. Where two headings read alike, the source gives them in different places. Square brackets hold non-standard residues; d marks the D form. Peptide text beside a SMILES is read from it. Dap = NC[C@H](N)C(=O)O
# What was measured:
# E. cloacae = test: MIC assay, E. cloacae; assay type: cell-based, Enterobacter cloacae
# Procedure: (§1) Bacterial growth conditions. LB or Mueller Hinton II cation-adjusted broth (MHB II, BBL 212322) was prepared according to manufacturer's instructions and supplemented with arabinose at 0.02% for overnight growth or at indicated concentrations in the description of the figures. Bacterial cultures were grown at 37° C. When appropriate, media was supplemented with kanamycin (50 μg/mL), carbenicillin (50 μg/mL), chloramphenicol (12.5 or 25 μg/mL), hygromycin (200 μg/mL), and/or gentamicin (10 μg/mL).
# (§2) Peptide sensitivity and MIC assays. Lyophilized peptides (Smartox Biotechnology, CPC Scientific. ABclonal) were solubilized to 10 mM in Tris buffer, pH 8, prior to making a 2-fold dilution series in MHBII cation adjusted broth with highest final assay concentration of 400-800 μM. Bacteria were grown to log phase and added to final OD600˜0.001. The final EDTA concentration was 0.5 mM for E. coli strains and 0.125 mM for USA300. The final volume of 10 μL/well in a 384 well black, clear bottom plate (Corning) was spun <1 min at <250×g and then incubated at 37° C. After 4 h, an equal volume (10 μL) of BacTiter-Glo™ (Promega) was added to each well and luminescence was read after 5 min on an EnVision plate reader (PerkinElmer). […] Plates were incubated at 37° C. for 20 h before measuring OD600 with an EnVision plate reader.
# [1] = test system: E. coli K-12 (pmrA^G53E and mcr-1); test: MIC against E. coli K-12 with PMX-resistance determinants (summary); assay type: cell-based, Escherichia coli; details: range over pmrA and mcr-1 strains
# Procedure: as §1, §2
# [2] = test system: Staphylococcus aureus (USA300); test: Bacterial growth inhibition, Staphylococcus aureus (USA300); assay type: cell-based; details: Gram-positive bacterium lacking LPS
# Procedure: as §1, §2
# E. coli BW25113 = assay type: cell-based, Escherichia coli; details: for MIC: Table 2
# Summary of the method: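 For MIC, bacteria (final OD600 ~0.0002) were incubated with 2-fold peptide dilutions (top 400–800 μM) in cation-adjusted MHB II with or without EDTA, 20 h at 37 °C, read by OD600. EDTA was 0.5 mM for E. coli and 0.125 mM for USA300. The growth-inhibition assay used log-phase cells at OD600 ~0.001, 4 h at 37 °C, BacTiter-Glo luminescence.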
# E. coli mcr-1 = assay type: cell-based, Escherichia coli; details: Table 5; colistin^R
# Summary of the method: (§3)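 OD600 after 20 h at 37° C gives the MIC. Cells at final OD600 ~0.0002 in cation-adjusted MHB II face a 2-fold peptide series up to 400-800 μM final, with EDTA at 0.5 mM (E. coli strains) or 0.125 mM (USA300).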
# E. coli imp4213 = test: MIC assay, E. coli imp4213; assay type: cell-based, Escherichia coli
# Summary of the method: as §3
# P. aeruginosa = assay type: cell-based, Pseudomonas aeruginosa
# Summary of the method: as §3
# K. pneumoniae = assay type: cell-based, Klebsiella pneumoniae
# Summary of the method: as §3
# E. coli K12 = test: Time-kill: colony forming units of E. coli K12 over time; assay type: cell-based, Escherichia coli; details: E. coli K12, FIG. 16A
# S. aureus USA300 = test: MIC assay, S. aureus USA300; assay type: cell-based, Staphylococcus aureus
# Summary of the method: as §3
# [3] = test system: Enterobacter cloacae, Klebsiella pneumoniae, Acinetobacter baumannii, and Pseudomonas aeruginosa; test: MIC against wild-type bacterial pathogens (summary over species); assay type: cell-based; details: range over the four wild-type pathogens
# Procedure: as §1, §2
# E. coli-ATCC 25922 = test: MIC assay, E. coli ATCC 25922; assay type: cell-based, Escherichia coli; details: Table 5; E. coli ATCC 25922, WT with O-antigen
# Procedure: as §1, §2
# E. coli pmrA^G53Y = test: MIC assay, E. coli pmrA^G53Y (BW25113); assay type: cell-based, Escherichia coli; details: Table 5; colistin^R
# Procedure: as §1, §2
# A. baumannii = assay type: cell-based, Acinetobacter baumannii; details: for MIC: Table 3, + EDTA (2 mM)
# Summary of the method: as §3
# red blood cell = test: Red blood cell lysis assay; assay type: cell-based; details: 50 μM, after 4 hrs, FIG. 16B
# E. coli + FhuAΔC/Δ4L = assay type: cell-based, Escherichia coli; details: Table 2; no EDTA
# Excerpt: pFhuAΔC/Δ4L was constructed by synthesizing the fhuA coding sequence lacking the N-terminal cork domain, Δ1-160, and extracellular loops L3, L4, L5, and L11 (Mohammad, et al., J Biol Chem 286, 8000-8013, (2011)).fhuAΔcΔ4L was amplified with primers N3P-105 (encoding the bla constitutive promoter, ribosome binding site, and AUG start codon from pUC19 (New England BioLabs) and N3P-107, and cloning into pACYC184 with BamHI and HindIII (New England BioLabs).
# as §1
# Peptide sensitivity and MIC assays. […] After 4 h, an equal volume (10 μL) of BacTiter-Glo™ (Promega) was added to each well and luminescence was read after 5 min on an EnVision plate reader (PerkinElmer). […] Plates were incubated at 37° C. for 20 h before measuring OD600 with an EnVision plate reader.
# [4] = Biolayer interferometry: captured biotinylated LAB peptides binding to LPS (KDO2-lipid A)
# Procedure: (§4) Biolayer interferometry. Phospholipid (Avanti polar lipids) and KDO2-lipid A (US Biological Life Sciences) stock solutions were prepared by resuspension into 25 mM Tris pH 8, 100 mM NaCl, 0.05% LMNG buffer and solubilized overnight at 4° C. Lipid stocks were diluted prior to experiments into 25 mM Tris pH 8, 100 mM NaCl, 0.5 mg/mL BSA, 0.05% LMNG. All assays were performed at 25° C. in 25 mM Tris pH 8, 100 mM NaCl, 0.5 mg/mL BSA, 0.05% LMNG. Biotinylated-LAB peptides were loaded onto SA biosensors to a response of approximately 0.5 nm. Binding to phospholipids and KDO2-lipid A was measured at concentrations of 150, 100, 50, 25, and 10 μM with 300s association and dissociation steps. Assays were performed in triplicate on an Octet Red384 (ForteBio) and buffer and lipid signals were subtracted by using a biotin-blocked reference streptavidin (SA) biosensor. Dissociation constants for LABWT and LABWT+, interactions with KDO2-lipidA were estimated by plotting response values at equilibrium as a function of concentration and fit to a global specific binding with Hill slope model in Prism (Graphpad Software).
# Based on the intriguing chemical characteristics of the LPS-PbgA interface, the possibility that a linear peptide derived from PbgA might selectively bind to LPS in vitro was considered. A peptide encompassing the lipid A-binding (LAB)-motif (209SYPMTARRFLEKHGLLD225; SEQ ID NO: 67) with an additional Gly-Ser-linker and biotin modification was generated and used in an interferometry-based assay. […] Two peptides intended to destabilize essential lipid A binding determinants were tested as controls.
# E. coli ΔwaaD pmrB^D149Y = test: MIC assay, E. coli ΔwaaD pmrB^D149Y; assay type: cell-based, Escherichia coli; details: Table 4; + EDTA; PMX-resistant
# Procedure: as §1, §2
# wild-type E. coli strain = test: Bacterial growth inhibition, wild-type E. coli strain; assay type: cell-based, Escherichia coli
# Procedure: as §1, §2
# E. coli ΔwaaD MCR-1 = test: MIC assay, E. coli ΔwaaD MCR-1; assay type: cell-based, Escherichia coli; details: Table 4; + EDTA; PMX-resistant
# Procedure: as §1
# (§5) Peptide sensitivity and MIC assays. Lyophilized peptides (Smartox Biotechnology, CPC Scientific. ABclonal) were solubilized to 10 mM in Tris buffer, pH 8, prior to making a 2-fold dilution series in MHBII cation adjusted broth with highest final assay concentration of 400-800 μM. Bacteria were grown to log phase and added to final OD600˜0.001. The final EDTA concentration was 0.5 mM for E. coli strains and 0.125 mM for USA300. The final volume of 10 μL/well in a 384 well black, clear bottom plate (Corning) was spun <1 min at <250×g and then incubated at 37° C. After 4 h, an equal volume (10 μL) of BacTiter-Glo™ (Promega) was added to each well and luminescence was read after 5 min on an EnVision plate reader (PerkinElmer). To measure the minimal inhibitory concentrations (MICs), bacteria from fresh overnight plates or log phase cultures were diluted with or without EDTA and peptides as described above to final OD600˜0.0002. Plates were incubated at 37° C. for 20 h before measuring OD600 with an EnVision plate reader.
# E. coli ΔwaaD = test: MIC assay, E. coli ΔwaaD; assay type: cell-based, Escherichia coli
# Procedure: as §1, §5
# E. coli = test: Cell growth inhibition assay with or without EDTA; assay type: cell-based, Escherichia coli; details: irrespective of the presence or absence of EDTA (0.5 mM)
# Procedure: as §5
# It was reasoned that the relatively large molecular weight (>2 kDa) and limited α-helical propensity of the linear LABWT peptide (SEQ ID NO: 1) might limit its access to LPS in the bacterial OM. […]
# [5] = Biolayer interferometry: captured biotinylated LAB peptides binding to phospholipids; parameters: species or system E. coli; details: above background
# Procedure: as §4
# Based on the intriguing chemical characteristics of the LPS-PbgA interface, the possibility that a linear peptide derived from PbgA might selectively bind to LPS in vitro was considered. […]
molecule,measurement,setting,value
"CSCC[C@H](NC(=O)[C@@H]1CCCN1C(=O)[C@H](Cc1ccc(O)cc1)NC(C)=O)C(=O)N[C@@H](CN)C(=O)N[C@@H](Cc1ccccc1)C(=O)N[C@@H](CCCNC(=N)N)C(=O)N[C@@H](CCCNC(=N)N)C(=O)N[C@@H](Cc1ccccc1)C(=O)N[C@@H](CC(C)C)C(=O)N[C@@H](CCC(=O)O)C(=O)N[C@@H](CCCCN)C(=O)N[C@@H](Cc1c[nH]c2ccccc12)C(=O)NCC(=O)N[C@@H](CC(C)C)C(=O)N[C@@H](CC(C)C)C(=O)N[C@@H](CCCNC(=N)N)C(N)=O [SEQ ID NO: 69, YPM(Dap)FRRFLEKWGLLR] (Ac-YPM[Dap]FRRFLEKWGLLR-NH2)",MICs,"E. cloacae; Table 5, ATCC 222, WT",12.5 µM
same,MICs,[1],12.5 to 25 µM
same,growth inhibition,[2],impacted only at very high concentrations
same,MICs,"E. coli BW25113; Table 5, E. coli K-12 (BW25113), WT",25 µM
same,MICs,E. coli mcr-1,25 µM
same,MICs,"E. coli imp4213; Table 5, permeable",6.25 µM
same,MICs,"P. aeruginosa; Table 5, PA-14, WT",200 µM
same,MICs,"K. pneumoniae; Table 5, ATCC 43816, WT",100 µM
same,time-kill kinetics (CFUs over time),E. coli K12,bactericidal
same,MICs,"S. aureus USA300; Table 5, USA300 Gram-positive control",400 µM
same,MICs,[3],12.5 to 200 µM
same,MICs,E. coli-ATCC 25922,50 µM
same,MICs,E. coli pmrA^G53Y,12.5 µM
same,MICs,"A. baumannii; Table 5, ATCC 19606, WT",12.5 µM
same,red blood cell lysis,red blood cell,no observe lysis
"Ac-SYPMTARRFLEKWGLLR-NH2 [SEQ ID NO: 68, SYPMTARRFLEKWGLLR]",MIC,"E. cloacae; Table 3, + EDTA (2 mM)",100 µM
same,MIC,E. coli BW25113; + 0.5 mM EDTA,200 µM
same,MIC,"E. coli BW25113; wild-type strain, no EDTA",>800 µM
same,MIC,"E. coli imp4213; Table 2, no EDTA",25 µM
same,MIC,E. coli + FhuAΔC/Δ4L,50 µM
same,improved affinity towards LPS,[4]; LABWT+ relative to LABWT,~1.5 fold
same,Kd,"[4]; LPS (KDO2-lipid A), biotinylated peptide on SA biosensor, 25° C., estimated from equilibrium responses",~55 µM
same,selective binding to LPS over PLs,[4]; versus the major PLs found in E. coli,maintaining selectivity over PL binding
same,MIC,E. coli ΔwaaD pmrB^D149Y,100 µM
same,growth inhibition,wild-type E. coli strain,failed to inhibit the growth
same,MIC,E. coli ΔwaaD MCR-1,100 µM
same,MIC,"P. aeruginosa; Table 3, + EDTA (2 mM)",400 µM
same,MIC,"K. pneumoniae; Table 3, + EDTA (2 mM)",>400 µM
same,MIC,"S. aureus USA300; Table 2, Gram-positive wild-type strain",>800 µM
same,MIC,A. baumannii,400 µM
same,MIC,A. baumannii; listed as LABWT+,200 µM
same,MIC,"E. coli ΔwaaD; Table 2, no EDTA",400 µM
same,MIC,"E. coli ΔwaaD; Table 4, + EDTA",100 µM
GSSYPMDARRFLEKHGLLD (Ac-GSSYPMDARRFLEKHGLLD-NH2) [SEQ ID NO: 3],binding to LPS,"[4]; interferometry, above background, listed as LABT213D",Neither a peptide lacking the α7 helix (LABΔα7; SEQ ID NO: 2) nor a peptide containing the T213D mutation equivalent (LABT213D; SEQ ID NO: 3) showed detectable binding to LPS or PLs above background; also recorded: failed to bind LPS in vitro
same,effect on bacterial cell growth,E. coli,showed no effect on bacterial cell growth
same,binding to PLs,[5],Neither a peptide lacking the α7 helix (LABΔα7; SEQ ID NO: 2) nor a peptide containing the T213D mutation equivalent (LABT213D; SEQ ID NO: 3) showed detectable binding to LPS or PLs above background
